From US6368788B1 (priority 1987, dated 2002)
Values joined by “and” are separate entries in the source; they are usually repeats but may differ in a detail not shown here. Equal values may be shown once. Read-outs that look alike come from different tables or passages of the source. Marks after values point to notes of the source that are not given here.

Legend:
[1] = test system: antibody-producing cells in spleen; assay: Antibody plaque forming cell response to sheep red blood cells (Jerne); type: in vivo, (CBAxC57B1/6) F1 mice; conditions: for PFC/10^6 splenocytes / PFC/Spleen / Spleen weight/Body weight / Splenocytes per Spleen: s-rbc immunized mice, day 5
Staphylococci [2] = assay: Antibiotic sensitivity (doubling-dilution, MIC-2000) of patient isolates before and after Stage 1; type: cell-based
Description: Antibiotics were administered according to established dosages and routes: i.e., penicillin, Ampicillin, oxacillin, tetracycline, erythromycin, garamycin; administered by intramuscular route. Antibiotics were chosen according to the antibiotic sensitivity of the Staphylococci isolated from the respective patients. (Antibiotic sensitivity was determined by testing staphylococcal isolates for their sensitivity in an antibiotic sensitivity doubling-dilution assay with the aid of the semi-automatic MIC-2000 system, Dynatech, USA).
Staphylococci were isolated from patients before and after treatment in Stage 1 with L-Glu-L-Trp in order to determine whether a favorable reversal of T-lymphocyte immunodeficiency might lead to a change in the antibiotic sensitivity. The isolated bacterial colonies following Stage I were typed as follows: namely, in 16 patients S. aureus, in 34, S. epidermidis, in 2 saprophytic Staphylococci. In all cases the same types of Staphylococci were isolated following treatment with L-Glu-L-Trp, but in 4 patients the predominant Staphylococci in the isolates changed from S. aureus to S. epidermidis (n=2), and saprophytic Staphylococci (n=2).
Antibiotic sensitivity of Staphylococci were determined by doubling-dilution methods with the aid of the semiautomatic MIC-2000 system (Dynatech, USA).

Bone fractures = assay: Bone fractures; set-up: species or system human; conditions: in vivo
Description: L-Glu-L-Trp was applied to 44 patients with bone fractures of various origin. The control group comprised 28 patients. L-Glu-L-Trp was administered intramuscularly or intranasally in a single dose of 100 μg daily for 10 days.

[3] = with antibiotic therapy
Staphylococci [4] = assay: Chronic staphylococcal pyoderma, overview (Protocol A); set-up: species or system human; conditions: in vivo
Description: The total clinical trial population eventually under examination consisted of 159 patients with pyoderma, including furunculitis, cellulitis, and folliculitis. Trial Protocol A1, below, details some of the results obtained in this trial. Medications were administered either im or intranasally for 5 consecutive days. Peripheral blood immune indices were decreased prior to treatment and following treatment with L-Glu-L-Trp were restored to within the normal range. […] Clinical improvement was correlated with return of the immune parameters to within the normal range of values. In certain patients, L-Glu-L-Trp was also topically applied as a sterile saline solution of medication for a period of 5 to 10 days at a dosage of 1 μg/kg body weight.

M. bovis = type: in vivo, mice; conditions: mouse, in vivo
influenza = test system: influenza; set-up: species or system human; conditions: in vivo
[5] = test system: peripheral blood lymphocytes; assay: Protocol A3 Group 2: pyoderma in patients with SLE; type: in vivo, human
Description: Group 2 constituted 22 patients with diagnosed forms of systemic lupus erythematosus (SLE): ie., 14 males and 8 females ranging in age from 21 to 62 years of age. The time since presentation with a diagnosis of SLE in this patient population ranged from several months to 18 years. All SLE patients in this trial had dermal manifestations of lupus erythematosus that included discoid disseminated forms of the disease. All patients had experienced chronic and recurrent episodes of pyoderma, and all had previously received conventional therapy, including use of antibiotics, delagil, and external corticosteroid ointments without effect. Patients in Group 2 were randomly divided into two treatment groups, the first consisting of 13 patients (9 men and 4 women) treated with L-Glu-L-Trp according to Therapy A, below, and the second consisting of 9 patients (5 men and 4 women) treated (as a control) according to Therapy B, ie., conventional therapeutic methods using anti-malarial preparations and vasoactive agents according to standard dosages and schedules.
In treatment Protocol A, all patients received L-Glu-L-Trp in combination with antibiotics. […]
Local antibiotics were administered as follows: Ampicillin (4), oxacillin (4), Levomycetin (1), tetracycline (9), Rondomycin (2), deoxycycline (8), cephalexin (2), and Rifampicin (1).

Frostbite = assay: Frostbite; set-up: species or system human; conditions: in vivo
Description: Seventeen patients with frostbite of the extremities were treated with L-Glu-L-Trp either im or intranasally. Eleven patients constituted a control group.

Burns = assay: Burns; set-up: species or system human; conditions: in vivo
Description: A total of 23 patients with cutaneous burns were treated with L-Glu-L-Trp either im or intranasally. Fourteen patients in a control group were treated using conventional methods.

Pseudomonas aeruginosa = assay: Survival after acute peritonitis with LD100 dose of Pseudomonas aeruginosa; type: in vivo, mice
[6] = Group 2 pyoderma in SLE, after L-Glu-L-Trp Therapy (n = 13)

In the case of L-Glu-L-Trp, the “Increase of frequency of PFC per 10^6 splenocytes” value ([1]; 1 μg/kg) is reported as 2.8 fold, the “Increase of number of PFC in spleen over saline control” value ([1]; 1 μg/kg) is reported as 2.7 fold and the “PFCs per spleen vs saline control” value ([1]; 10 μg/kg) is reported as 1.8 fold. The “PFCs per spleen vs saline control” value ([1]; 100 μg/kg) was 1.6 fold, the “PFC/10^6 splenocytes” value ([1]; 1 μg/kg) was 69.2 ± 11.3 and the PFC/Spleen ([1]; 1 μg/kg) was 11722 ± 2005. The “Spleen weight/Body weight” value ([1]; 1 μg/kg) was 0.42 ± 0.01, the “Splenocytes per Spleen” value ([1]; 1 μg/kg) was 168.6 ± 3.6 ×10^6 and the “PFC/10^6 splenocytes” value ([1]; 10 μg/kg) was 48.8 ± 9. The PFC/Spleen ([1]; 10 μg/kg) was 7854 ± 1631, the “Spleen weight/Body weight” value ([1]; 10 μg/kg) was 0.43 ± 0.01 and the “Splenocytes per Spleen” value ([1]; 10 μg/kg) was 159 ± 8.5 ×10^6. The “PFC/10^6 splenocytes” value ([1]; 100 μg/kg) was 41.7 ± 6, the PFC/Spleen ([1]; 100 μg/kg) was 6731 ± 1027 and the “Spleen weight/Body weight” value ([1]; 100 μg/kg) was 0.44 ± 0.02. The “Splenocytes per Spleen” value ([1]; 100 μg/kg) was 162.6 ± 6 ×10^6, the “Patients with decreased MIC of antibiotic for isolated bacteria” value (Staphylococci [2]; conclusion of Stage 1) was 78% and the “Increase in antibiotic sensitivity of isolates” value (Staphylococci [2]; in certain cases) was > 100 fold. The Clinical outcome (Bone fractures) was “prevented the development of infectious complications, reduced pain syndrome and treatment duration”, the Clinical outcome [3] was “accelerated healing of chronic and acute ear infections” and the Clinical outcome (Staphylococci [4]) was “disappearance of skin manifestations and resolution of pyoderma”. The Survival (M. bovis) was “significantly increased survival”, the “Survival Mean” value (M. bovis; ip) was 39 ± 2 and 36 ± 3 and 30 ± 2 and 33 ± 1 and 31 ± 1 and 28 ± 1 and the “Survival Median” value (M. bovis; ip) was 46 ± 10 and 28 ± 3 and 26 ± 1 and 34 ± 3 and 28 ± 1 and 25 ± 1. The Clinical outcome (influenza) was “significantly decreased the incidence of sickness in the vaccinated subjects for a period of 12 months”, the B-Lymphocytes [5, 6] was 0.16 ± 0.01 ×10^9/L and the “B-Lymphocytes % Normal Value” [5, 6] was “(52%)”. The “B-Lymphocytes (%)” value [5, 6] was 6.8 ± 0.9%, the “Basophils (%)” value [5, 6] was 0.1 ± 0.1% and the “Blast Transformation, Con-A” value [5, 6] was 64.1 ± 6.5 % of PBL. The “Blast Transformation, PHA” value [5, 6] was 47.4 ± 3.5 % of PBL, the “Eosinophils (%)” value [5, 6] was 2.2 ± 0.1% and the Erythrocytes [5, 6] was 4.7 ± 0.1 10^12/L. For the same substance, the IgA [5, 6] was 2.85 ± 0.32 g/L, the “IgA % Normal Value” [5, 6] was “(150%)” and the IgG [5, 6] was 14.8 ± 1.27 g/L. The “IgG % Normal Value” [5, 6] was “(137%)”, the IgM [5, 6] was 0.92 ± 0.12 g/L and the “IgM % Normal Value” [5, 6] was “(58%)”. The Leukocytes [5, 6] was 5.74 ± 0.12 ×10^9/L, the “Leukocytes % Normal Value” [5, 6] was “(86%)” and the Lymphocytes [5, 6] was 2.17 ± 0.21 ×10^9/L. For the same substance, the “Lymphocytes % Normal Value” [5, 6] was “(78%)”, the Lymphocytes, % [5, 6] was 36.4 ± 2.3% and the “Monocytes, %” value [5, 6] was 8.0 ± 0.7%. For the same substance, the Neutrophils [5, 6] was 3.5 ± 0.7 ×10^9/L, the “Neutrophils, %” value [5, 6] was 55.3 ± 4.2% and the “Neutrophils, % Normal Value” [5, 6] was “(106%)”. For the same substance, the T-Lymphocytes [5, 6] was 1.13 ± 0.07 ×10^9/L, the “T-Lymphocytes % Normal Value” [5, 6] was “(66%)” and the “T-Lymphocytes (%)” value [5, 6] was 44.3 ± 2.7%. For the same substance, the T-helper [5, 6] was 0.87 ± 0.12 ×10^9/L, the “T-helper % Normal Value” [5, 6] was “(66%)” and the “T-helper (%)” value [5, 6] was 26.5 ± 2.7%. The T-suppressor [5, 6] was 0.53 ± 0.03 ×10^9/L, the “T-suppressor % Normal Value” [5, 6] was “(136%)” and the “T-suppressor (%)” value [5, 6] was 21.2 ± 3.7%. The Clinical outcome ([5]; human, in vivo) was “leads to a positive clinical effect and resolution of dermal rashes”, the Clinical outcome (Frostbite) was “Rapid healing and restoration of tissue integrity” and the Clinical outcome (Burns) was “accelerated rate of wound healing”. The “Percentage Survivors” value (Pseudomonas aeruginosa; 24 hours after injection, Glu-Trp dose 10 μg/kg (alone or + Gentamycin 1 MED)) was 55.6* %, the “Percentage Survivors” value (Pseudomonas aeruginosa; 24 hours after injection, Glu-Trp dose 100 μg/kg (alone or + Gentamycin 1 MED)) was 66.7*† % and the “Percentage Survivors” value (Pseudomonas aeruginosa; 24 hours after injection, Glu-Trp dose 1000 μg/kg (alone or + Gentamycin 1 MED)) was 77.8*† %. For the same substance, the “Percentage Survivors” value (Pseudomonas aeruginosa; 48 hours after injection, Glu-Trp dose 10 μg/kg (alone or + Gentamycin 1 MED)) was 5.6%, the “Percentage Survivors” value (Pseudomonas aeruginosa; 48 hours after injection, Glu-Trp dose 100 μg/kg (alone or + Gentamycin 1 MED)) was 38.9* % and the “Percentage Survivors” value (Pseudomonas aeruginosa; 48 hours after injection, Glu-Trp dose 1000 μg/kg (alone or + Gentamycin 1 MED)) was 44.4* %. For the same substance, the “Percentage Survivors” value (Pseudomonas aeruginosa; 96 hours after injection, Glu-Trp dose 10 μg/kg (alone or + Gentamycin 1 MED)) was 5.6%, the “Percentage Survivors” value (Pseudomonas aeruginosa; 96 hours after injection, Glu-Trp dose 100 μg/kg (alone or + Gentamycin 1 MED)) was 38.9% and the “Percentage Survivors” value (Pseudomonas aeruginosa; 96 hours after injection, Glu-Trp dose 1000 μg/kg (alone or + Gentamycin 1 MED)) was 44.4* %. For the same substance, the Survival (Pseudomonas aeruginosa; alone or with Gentamycin) was “significantly increased the percentage of mice surviving a lethal challenge of Pseudomonas”.
